Experimental data published in paper PMC12373846, “Hemoglobin as a pseudoperoxidase and drug target for oxidative stress-related diseases” (Signal Transduction and Targeted Therapy, 2025).

Tests used:
Assay in all cases: KINOMEscan
Assay type in all cases: binding
Conditions in all cases: 10000 nM; read-out: Percent Control
[1] = target: T1, FLT3 (Homo sapiens, UniProt P36888)
T1 construct: purchased DiscoverX KINOMEscan scanEDGE; Eurofins Cerep SafetyScreen87
Description: (§1) The possibility of KDS12025 on kinase off-target, the KINOMEscan panel of scanEDGE assay was conducted in DiscoverX (CA, USA) using a site-directed competition binding with the test compounds. The assay results are given in Supplementary Table 4 and experimental information is available on the DiscoverX web page (www.discoverx.com). Moreover, the Delta SafetyScreen87 panel assay was conducted in Eurofins Discovery (Cerep, France). The assay results are given in Supplementary Table 5 and experimental information is available on the DiscoverX web page (https://www.eurofinsdiscoveryservices.com).

[2] = target: T2, EPHA2 (Homo sapiens, UniProt P29317)
T2 construct: purchased DiscoverX KINOMEscan scanEDGE; Eurofins Cerep SafetyScreen87
Description: as §1

[3] = target: T3, PIM3 (Homo sapiens, UniProt Q86V86)
T3 construct: purchased DiscoverX KINOMEscan scanEDGE; Eurofins Cerep SafetyScreen87
Description: as §1

[4] = target: T4, RET (Homo sapiens, UniProt P07949)
T4 construct: purchased DiscoverX KINOMEscan scanEDGE; Eurofins Cerep SafetyScreen87
Description: as §1

[5] = target: T5, TYK2(JH1domain-catalytic) (Homo sapiens, UniProt P29597)
T5 construct: TYK2(JH1domain-catalytic); purchased DiscoverX KINOMEscan scanEDGE; Eurofins Cerep SafetyScreen87
Description: as §1

[6] = target: T6, TRKA (Homo sapiens, UniProt P04629)
T6 construct: purchased DiscoverX KINOMEscan scanEDGE; Eurofins Cerep SafetyScreen87
Description: as §1

[7] = target: T7, ERBB4 (Homo sapiens, UniProt Q15303)
T7 construct: purchased DiscoverX KINOMEscan scanEDGE; Eurofins Cerep SafetyScreen87
Description: as §1

[8] = target: T8, PIK3CA (Homo sapiens, UniProt P42336)
T8 construct: purchased DiscoverX KINOMEscan scanEDGE; Eurofins Cerep SafetyScreen87
T8 sequence (P42336 whole entry): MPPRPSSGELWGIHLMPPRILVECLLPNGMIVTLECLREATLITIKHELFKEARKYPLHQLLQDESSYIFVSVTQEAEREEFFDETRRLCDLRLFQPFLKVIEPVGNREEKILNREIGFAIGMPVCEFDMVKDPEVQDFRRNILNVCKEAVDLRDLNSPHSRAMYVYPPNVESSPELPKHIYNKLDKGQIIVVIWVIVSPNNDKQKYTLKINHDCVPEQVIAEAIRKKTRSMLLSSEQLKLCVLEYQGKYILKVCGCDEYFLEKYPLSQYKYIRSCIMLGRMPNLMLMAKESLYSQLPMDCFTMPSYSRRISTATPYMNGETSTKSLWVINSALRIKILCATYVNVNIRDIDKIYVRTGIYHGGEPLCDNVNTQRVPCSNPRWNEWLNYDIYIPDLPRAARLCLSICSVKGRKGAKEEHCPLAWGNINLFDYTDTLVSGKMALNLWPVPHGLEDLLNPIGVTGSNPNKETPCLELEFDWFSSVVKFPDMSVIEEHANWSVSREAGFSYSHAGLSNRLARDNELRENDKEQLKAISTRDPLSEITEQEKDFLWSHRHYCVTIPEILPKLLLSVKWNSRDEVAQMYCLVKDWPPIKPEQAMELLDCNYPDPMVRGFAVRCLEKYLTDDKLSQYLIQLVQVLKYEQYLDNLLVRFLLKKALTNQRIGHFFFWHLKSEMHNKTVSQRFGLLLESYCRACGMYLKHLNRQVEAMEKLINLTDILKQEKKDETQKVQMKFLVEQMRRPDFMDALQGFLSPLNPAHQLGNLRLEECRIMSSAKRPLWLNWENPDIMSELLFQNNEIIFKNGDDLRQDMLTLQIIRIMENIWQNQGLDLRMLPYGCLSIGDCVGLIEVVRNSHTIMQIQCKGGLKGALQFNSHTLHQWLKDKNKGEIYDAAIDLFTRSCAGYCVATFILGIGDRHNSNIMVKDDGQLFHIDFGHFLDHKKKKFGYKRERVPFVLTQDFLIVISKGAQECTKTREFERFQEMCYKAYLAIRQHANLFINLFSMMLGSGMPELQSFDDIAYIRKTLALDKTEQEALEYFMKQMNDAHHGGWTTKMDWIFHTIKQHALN
Description: as §1

[9] = target: T9, AURKA (Homo sapiens, UniProt O14965)
T9 construct: purchased DiscoverX KINOMEscan scanEDGE; Eurofins Cerep SafetyScreen87
Description: as §1

[10] = target: T10, CHEK1 (Homo sapiens, UniProt O14757)
T10 construct: purchased DiscoverX KINOMEscan scanEDGE; Eurofins Cerep SafetyScreen87
Description: as §1

[11] = target: T11, TGFBR1 (Homo sapiens, UniProt P36897)
T11 construct: purchased DiscoverX KINOMEscan scanEDGE; Eurofins Cerep SafetyScreen87
Description: as §1

[12] = target: T12, CDK3 (Homo sapiens, UniProt Q00526)
T12 construct: purchased DiscoverX KINOMEscan scanEDGE; Eurofins Cerep SafetyScreen87
Description: as §1

[13] = target: T13, PDGFRA (Homo sapiens, UniProt P16234)
T13 construct: purchased DiscoverX KINOMEscan scanEDGE; Eurofins Cerep SafetyScreen87
Description: as §1

[14] = target: T14, PCTK1 (Homo sapiens, UniProt Q00536)
T14 construct: purchased DiscoverX KINOMEscan scanEDGE; Eurofins Cerep SafetyScreen87
T14 sequence (Q00536 whole entry): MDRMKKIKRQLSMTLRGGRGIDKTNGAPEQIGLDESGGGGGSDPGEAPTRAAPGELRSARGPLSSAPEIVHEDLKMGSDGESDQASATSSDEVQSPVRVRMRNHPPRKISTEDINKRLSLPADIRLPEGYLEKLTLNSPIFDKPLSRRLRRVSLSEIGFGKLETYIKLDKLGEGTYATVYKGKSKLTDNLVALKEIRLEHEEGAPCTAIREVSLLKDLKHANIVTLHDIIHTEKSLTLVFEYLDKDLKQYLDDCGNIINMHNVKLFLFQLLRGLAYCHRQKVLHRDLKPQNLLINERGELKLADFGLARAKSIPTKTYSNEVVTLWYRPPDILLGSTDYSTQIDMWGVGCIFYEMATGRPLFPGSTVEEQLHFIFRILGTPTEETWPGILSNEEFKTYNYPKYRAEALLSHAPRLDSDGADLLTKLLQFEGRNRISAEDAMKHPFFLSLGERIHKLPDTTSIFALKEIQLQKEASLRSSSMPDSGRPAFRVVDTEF
Description: as §1

[15] = target: T15, PDPK1 (Homo sapiens, UniProt O15530)
T15 construct: purchased DiscoverX KINOMEscan scanEDGE; Eurofins Cerep SafetyScreen87
Description: as §1

[16] = target: T16, ZAP70 (Homo sapiens, UniProt P43403)
T16 construct: purchased DiscoverX KINOMEscan scanEDGE; Eurofins Cerep SafetyScreen87
Description: as §1

[17] = target: T17, LKB1 (Homo sapiens, UniProt Q15831)
T17 construct: purchased DiscoverX KINOMEscan scanEDGE; Eurofins Cerep SafetyScreen87
Description: as §1

[18] = target: T18, IKK-alpha (Homo sapiens, UniProt O15111)
T18 construct: purchased DiscoverX KINOMEscan scanEDGE; Eurofins Cerep SafetyScreen87
Description: as §1

[19] = target: T19, DYRK1B (Homo sapiens, UniProt Q9Y463)
T19 construct: purchased DiscoverX KINOMEscan scanEDGE; Eurofins Cerep SafetyScreen87
Description: as §1

[20] = target: T20, PLK3 (Homo sapiens, UniProt Q9H4B4)
T20 construct: purchased DiscoverX KINOMEscan scanEDGE; Eurofins Cerep SafetyScreen87
Description: as §1

[21] = target: T21, PIK3C2B (Homo sapiens, UniProt O00750)
T21 construct: purchased DiscoverX KINOMEscan scanEDGE; Eurofins Cerep SafetyScreen87
Description: as §1

[22] = target: T22, IGF1R (Homo sapiens, UniProt P08069)
T22 construct: purchased DiscoverX KINOMEscan scanEDGE; Eurofins Cerep SafetyScreen87
Description: as §1

[23] = target: T23, VEGFR2 (Homo sapiens, UniProt P35968)
T23 construct: purchased DiscoverX KINOMEscan scanEDGE; Eurofins Cerep SafetyScreen87
Description: as §1

[24] = target: T24, PRKCE (Homo sapiens, UniProt Q02156)
T24 construct: purchased DiscoverX KINOMEscan scanEDGE; Eurofins Cerep SafetyScreen87
Description: as §1

[25] = target: T25, KIT(V559D,T670I) (Homo sapiens, UniProt P10721, T670I/V559D)
T25 construct: purchased DiscoverX KINOMEscan scanEDGE; Eurofins Cerep SafetyScreen87
Description: as §1

[26] = target: T26, PIK3CG (Homo sapiens, UniProt P48736)
T26 construct: purchased DiscoverX KINOMEscan scanEDGE; Eurofins Cerep SafetyScreen87
T26 sequence (P48736 whole entry): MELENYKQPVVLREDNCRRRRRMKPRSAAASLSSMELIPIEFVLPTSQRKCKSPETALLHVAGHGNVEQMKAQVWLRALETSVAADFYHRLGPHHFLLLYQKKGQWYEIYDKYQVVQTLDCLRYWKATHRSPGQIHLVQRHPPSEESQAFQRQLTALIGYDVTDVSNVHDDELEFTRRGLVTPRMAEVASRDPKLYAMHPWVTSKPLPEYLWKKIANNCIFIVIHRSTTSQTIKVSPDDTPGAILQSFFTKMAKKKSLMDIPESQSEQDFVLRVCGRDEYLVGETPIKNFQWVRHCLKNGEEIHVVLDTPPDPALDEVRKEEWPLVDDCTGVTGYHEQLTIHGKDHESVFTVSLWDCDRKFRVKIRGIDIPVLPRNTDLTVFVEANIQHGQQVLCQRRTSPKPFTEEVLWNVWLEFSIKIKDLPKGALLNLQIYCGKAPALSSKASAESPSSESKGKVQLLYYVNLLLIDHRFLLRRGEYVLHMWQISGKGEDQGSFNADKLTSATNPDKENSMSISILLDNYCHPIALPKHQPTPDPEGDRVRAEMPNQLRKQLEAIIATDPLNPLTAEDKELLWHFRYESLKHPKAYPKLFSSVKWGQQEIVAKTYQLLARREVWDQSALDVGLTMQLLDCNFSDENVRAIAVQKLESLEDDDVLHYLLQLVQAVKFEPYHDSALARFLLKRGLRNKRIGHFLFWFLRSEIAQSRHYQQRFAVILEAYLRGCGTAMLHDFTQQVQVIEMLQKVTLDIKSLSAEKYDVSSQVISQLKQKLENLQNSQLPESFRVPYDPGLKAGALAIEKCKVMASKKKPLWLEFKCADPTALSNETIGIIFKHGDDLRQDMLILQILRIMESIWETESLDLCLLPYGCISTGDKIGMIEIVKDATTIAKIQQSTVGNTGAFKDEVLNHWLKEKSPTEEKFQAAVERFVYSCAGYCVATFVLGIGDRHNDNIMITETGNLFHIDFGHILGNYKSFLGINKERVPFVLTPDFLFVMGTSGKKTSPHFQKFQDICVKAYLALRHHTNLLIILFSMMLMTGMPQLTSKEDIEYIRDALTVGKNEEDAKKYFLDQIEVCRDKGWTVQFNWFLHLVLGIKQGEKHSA
Description: as §1

[27] = target: T27, RIOK2 (Homo sapiens, UniProt Q9BVS4)
T27 construct: purchased DiscoverX KINOMEscan scanEDGE; Eurofins Cerep SafetyScreen87
Description: as §1

[28] = target: T28, MKNK1 (Homo sapiens, UniProt Q9BUB5)
T28 construct: purchased DiscoverX KINOMEscan scanEDGE; Eurofins Cerep SafetyScreen87
Description: as §1

[29] = target: T29, RSK2(Kin.Dom.1-N-terminal) (Homo sapiens, UniProt P51812)
T29 construct: RSK2(Kin.Dom.1-N-terminal); purchased DiscoverX KINOMEscan scanEDGE; Eurofins Cerep SafetyScreen87
T29 sequence (P51812 1-397 limits assumed): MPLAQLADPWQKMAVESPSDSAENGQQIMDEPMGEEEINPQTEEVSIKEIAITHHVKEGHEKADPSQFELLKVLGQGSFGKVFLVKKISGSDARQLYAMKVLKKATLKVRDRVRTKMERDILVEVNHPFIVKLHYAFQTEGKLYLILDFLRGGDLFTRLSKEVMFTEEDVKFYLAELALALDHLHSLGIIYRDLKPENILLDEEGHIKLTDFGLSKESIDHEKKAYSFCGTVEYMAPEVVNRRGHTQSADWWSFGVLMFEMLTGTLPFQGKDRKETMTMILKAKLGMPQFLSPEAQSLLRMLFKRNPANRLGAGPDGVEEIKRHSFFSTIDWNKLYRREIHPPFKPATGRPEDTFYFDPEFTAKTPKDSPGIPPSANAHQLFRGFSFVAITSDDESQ
Description: as §1

[30] = target: T30, AXL (Homo sapiens, UniProt P30530)
T30 construct: purchased DiscoverX KINOMEscan scanEDGE; Eurofins Cerep SafetyScreen87
Description: as §1

[31] = target: T31, BTK (Homo sapiens, UniProt Q06187)
T31 construct: purchased DiscoverX KINOMEscan scanEDGE; Eurofins Cerep SafetyScreen87
Description: as §1

[32] = target: T32, DCAMKL1 (Homo sapiens, UniProt O15075)
T32 construct: purchased DiscoverX KINOMEscan scanEDGE; Eurofins Cerep SafetyScreen87
Description: as §1

[33] = target: T33, YANK3 (Homo sapiens, UniProt Q86UX6)
T33 construct: purchased DiscoverX KINOMEscan scanEDGE; Eurofins Cerep SafetyScreen87
Description: as §1

[34] = target: T34, p38-alpha (Homo sapiens, UniProt Q16539)
T34 construct: purchased DiscoverX KINOMEscan scanEDGE; Eurofins Cerep SafetyScreen87
T34 sequence (Q16539 whole entry): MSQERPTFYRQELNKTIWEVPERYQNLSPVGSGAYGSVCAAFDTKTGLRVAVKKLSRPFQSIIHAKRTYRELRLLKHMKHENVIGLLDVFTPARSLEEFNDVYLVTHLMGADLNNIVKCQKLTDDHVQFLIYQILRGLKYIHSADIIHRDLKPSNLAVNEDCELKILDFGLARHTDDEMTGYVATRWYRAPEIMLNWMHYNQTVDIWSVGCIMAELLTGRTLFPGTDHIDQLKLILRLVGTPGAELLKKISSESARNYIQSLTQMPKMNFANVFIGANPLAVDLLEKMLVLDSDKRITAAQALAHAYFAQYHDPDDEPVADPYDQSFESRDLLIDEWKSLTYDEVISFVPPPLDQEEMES
Description: as §1

[35] = target: T35, AURKB (Homo sapiens, UniProt Q96GD4)
T35 construct: purchased DiscoverX KINOMEscan scanEDGE; Eurofins Cerep SafetyScreen87
Description: as §1

[36] = target: T36, SNARK (Homo sapiens, UniProt Q9H093)
T36 construct: purchased DiscoverX KINOMEscan scanEDGE; Eurofins Cerep SafetyScreen87
Description: as §1

[37] = target: T37, INSR (Homo sapiens, UniProt P06213)
T37 construct: purchased DiscoverX KINOMEscan scanEDGE; Eurofins Cerep SafetyScreen87
Description: as §1

[38] = target: T38, GSK3B (Homo sapiens, UniProt P49841)
T38 construct: purchased DiscoverX KINOMEscan scanEDGE; Eurofins Cerep SafetyScreen87
Description: as §1

[39] = target: T39, MEK1 (Homo sapiens, UniProt Q02750)
T39 construct: purchased DiscoverX KINOMEscan scanEDGE; Eurofins Cerep SafetyScreen87
T39 sequence (Q02750 whole entry): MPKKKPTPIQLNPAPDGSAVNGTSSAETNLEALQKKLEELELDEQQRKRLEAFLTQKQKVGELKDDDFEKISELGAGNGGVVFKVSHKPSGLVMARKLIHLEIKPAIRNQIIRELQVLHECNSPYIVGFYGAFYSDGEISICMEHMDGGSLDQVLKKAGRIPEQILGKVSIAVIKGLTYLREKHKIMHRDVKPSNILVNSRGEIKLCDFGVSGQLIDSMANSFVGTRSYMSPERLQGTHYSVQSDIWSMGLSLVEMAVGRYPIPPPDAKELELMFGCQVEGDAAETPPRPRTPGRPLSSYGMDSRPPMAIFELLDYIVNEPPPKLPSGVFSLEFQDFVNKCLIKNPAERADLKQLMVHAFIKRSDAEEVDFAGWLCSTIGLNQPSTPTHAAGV
Description: as §1

T1 sequence (P36888 27-993): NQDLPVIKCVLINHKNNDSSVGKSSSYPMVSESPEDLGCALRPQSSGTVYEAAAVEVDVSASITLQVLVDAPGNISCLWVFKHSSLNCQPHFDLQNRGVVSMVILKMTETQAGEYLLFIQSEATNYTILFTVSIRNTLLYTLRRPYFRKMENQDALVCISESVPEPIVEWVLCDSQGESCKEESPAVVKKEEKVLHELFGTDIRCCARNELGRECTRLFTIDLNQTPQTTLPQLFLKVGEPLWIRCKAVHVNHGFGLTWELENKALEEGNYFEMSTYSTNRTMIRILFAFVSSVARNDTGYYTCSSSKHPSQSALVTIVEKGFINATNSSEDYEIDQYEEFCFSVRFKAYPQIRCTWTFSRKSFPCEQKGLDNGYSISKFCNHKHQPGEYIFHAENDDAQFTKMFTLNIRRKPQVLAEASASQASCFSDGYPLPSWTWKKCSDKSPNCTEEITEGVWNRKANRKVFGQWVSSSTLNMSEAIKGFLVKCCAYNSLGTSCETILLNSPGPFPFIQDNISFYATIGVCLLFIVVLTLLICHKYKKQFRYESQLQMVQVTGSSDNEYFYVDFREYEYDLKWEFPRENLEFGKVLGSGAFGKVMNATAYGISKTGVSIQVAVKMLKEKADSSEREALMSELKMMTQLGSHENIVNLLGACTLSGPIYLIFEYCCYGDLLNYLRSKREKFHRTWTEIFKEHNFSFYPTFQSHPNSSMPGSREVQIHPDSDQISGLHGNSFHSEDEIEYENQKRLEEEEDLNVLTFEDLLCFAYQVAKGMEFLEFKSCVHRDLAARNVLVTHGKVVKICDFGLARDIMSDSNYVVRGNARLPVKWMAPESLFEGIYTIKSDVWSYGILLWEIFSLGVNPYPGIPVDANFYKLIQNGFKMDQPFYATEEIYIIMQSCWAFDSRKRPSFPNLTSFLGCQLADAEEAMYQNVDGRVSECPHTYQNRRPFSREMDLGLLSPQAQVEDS

`CNc1ccc(NCCc2ccccc2OC)cc1.Cl` [KDS12025, N^1-(2-methoxyphenethyl)-N^4-methylbenzene-1,4-diamine hydrochloride salt] was tested, and the remaining binding at 10 µM [1] was 100%, the remaining binding at 10 µM [2] was 89% and the remaining binding at 10 µM [3] was 84%. The remaining binding at 10 µM [4] was 100%, the remaining binding at 10 µM [5] was 93% and the remaining binding at 10 µM [6] was 100%. For the same compound, the remaining binding at 10 µM [7] was 92%, the remaining binding at 10 µM [8] was 63% and the remaining binding at 10 µM [9] was 86%. It also gave a remaining binding at 10 µM [10] of 82%, a remaining binding at 10 µM [11] of 96% and a remaining binding at 10 µM [12] of 79%. It also gave a remaining binding at 10 µM [13] of 85%, a remaining binding at 10 µM [14] of 94% and a remaining binding at 10 µM [15] of 56%. It also gave a remaining binding at 10 µM [16] of 88%, a remaining binding at 10 µM [17] of 80% and a remaining binding at 10 µM [18] of 100%. It also gave a remaining binding at 10 µM [19] of 67%, a remaining binding at 10 µM [20] of 75% and a remaining binding at 10 µM [21] of 91%. For the same compound, the remaining binding at 10 µM [22] was 84%, the remaining binding at 10 µM [23] was 100% and the remaining binding at 10 µM [24] was 100%. For the same compound, the remaining binding at 10 µM [25] was 94%, the remaining binding at 10 µM [26] was 100% and the remaining binding at 10 µM [27] was 98%. For the same compound, the remaining binding at 10 µM [28] was 100%, the remaining binding at 10 µM [29] was 84% and the remaining binding at 10 µM [30] was 95%. The remaining binding at 10 µM [31] was 100%, the remaining binding at 10 µM [32] was 82% and the remaining binding at 10 µM [33] was 83%. It also gave a remaining binding at 10 µM [34] of 100%, a remaining binding at 10 µM [35] of 78% and a remaining binding at 10 µM [36] of 100%. The remaining binding at 10 µM [37] was 85%, the remaining binding at 10 µM [38] was 95% and the remaining binding at 10 µM [39] was 82%.
